Data taken from patent publication US9018258B2, “Substituted 1-benzylcycloalkylcarboxylic acids and the use thereof” (Bayer Intellectual Property GmbH, priority 2010, dated 2015).

What was measured:
GAL4-PPARδ = target: T1, GAL4-PPARδ (Homo sapiens, UniProt Q03181); assay: Cellular PPAR transactivation assay, GAL4-PPARδ chimera in CHO-K1 cells; format: cell-based
T1 construct: PPARδ (amino acids 138-442); expressed in transfected cells
T1 sequence (Q03181 138-441 limits assumed): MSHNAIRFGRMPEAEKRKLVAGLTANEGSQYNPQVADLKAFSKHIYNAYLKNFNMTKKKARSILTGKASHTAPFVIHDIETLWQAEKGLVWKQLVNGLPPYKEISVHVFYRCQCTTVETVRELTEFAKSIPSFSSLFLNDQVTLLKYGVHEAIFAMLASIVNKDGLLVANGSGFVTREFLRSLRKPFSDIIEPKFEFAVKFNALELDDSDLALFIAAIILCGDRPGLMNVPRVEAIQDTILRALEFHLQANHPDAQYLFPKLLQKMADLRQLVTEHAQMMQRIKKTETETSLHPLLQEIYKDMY
Excerpt: (§1) A cellular assay is used to test for potentially activating properties of the compounds according to the invention with respect to the three human isoforms of the peroxisome proliferator-activated receptors (PPARα, PPARγ and PPARδ).
(§2) Since mammalian cells contain different endogenous nuclear receptors which may complicate an unambiguous interpretation of the results, an established chimera system is used in which the respective ligand binding domain of the human PPAR isoforms is fused to the DNA binding domain of the yeast transcription factor GAL4. The resulting GAL4-PPARα, γ and δ chimeras are co-transfected and stably expressed in CHO cells having a reporter construct.
(§3) The GAL4-PPAR expression constructs contain the ligand binding domain of PPARα (amino acids 167-468), PPARγ (amino acids 203-506) and PPARδ (amino acids 138-442) which are PCR-amplified and cloned into the vector pcDNA3.1. The respective expression vectors already contain the GAL4 DNA binding domain (amino acids 1-147) of the vector pFC2-dbd (Stratagene). The reporter construct, which contains five copies of the GAL4 binding site upstream of a thymidine kinase promoter, expresses firefly luciferase (Photinus pyralis) following activation and binding of GAL4-PPARα, γ or δ.
(§4) The day before the test, CHO-K1 cells (chinese hamster ovary; ATCC CCL-61) each stably expressing one of the above-described GAL4-PPAR chimeras and the luciferase reporter gene construct are sown in medium [Optimem (GIBCO) with 2% activated carbon-purified foetal calf serum (Hyclone), 1.35 mM sodium pyruvate (GIBCO) and 0.2% sodium bicarbonate (GIBCO)] in a density of 1×10^3 cells in 96-well microtitre plates (Greiner) and kept in a cell incubator (96% atmospheric humidity, 5% v/v CO2, 37° C.). On the test day, the substances to be tested are taken up in the medium mentioned above, but without addition of calf serum, and added in various concentrations to the cells. After a stimulation period of 6 h, the luciferase activity is measured using a video camera. The relative light units measured give, as a function of the substance concentration, a sigmoidal stimulation curve. The EC50 values are calculated using the computer programme GraphPad PRISM (Version 3.02). The maximum effect of a test substance in the respective PPAR assay is determined as efficacy in percent in comparison to an appropriate reference compound whose maximum effect is defined as 100%.
(§5) The reference compound selected here was the compound 2-(3-{[(2-chloro-4-propoxybenzoyl)-amino]methyl}-4-ethoxybenzyl)tetrahydrofuran-2-carboxylic acid [Example 73 of EP 1 452 521-A1] which is described in the prior art as a potent pan-PPAR agonist.

sGC = target: T2, sGC (Rattus norvegicus, UniProt P20595); assay: Action at a recombinant guanylate cyclase reporter cell line (CHO reporter cell); format: cell-based; conditions: CHO reporter cell in vitro
T2 construct: expressed in transfected cells; host or cells: CHO reporter cell
T2 sequence (P19686 whole entry partner): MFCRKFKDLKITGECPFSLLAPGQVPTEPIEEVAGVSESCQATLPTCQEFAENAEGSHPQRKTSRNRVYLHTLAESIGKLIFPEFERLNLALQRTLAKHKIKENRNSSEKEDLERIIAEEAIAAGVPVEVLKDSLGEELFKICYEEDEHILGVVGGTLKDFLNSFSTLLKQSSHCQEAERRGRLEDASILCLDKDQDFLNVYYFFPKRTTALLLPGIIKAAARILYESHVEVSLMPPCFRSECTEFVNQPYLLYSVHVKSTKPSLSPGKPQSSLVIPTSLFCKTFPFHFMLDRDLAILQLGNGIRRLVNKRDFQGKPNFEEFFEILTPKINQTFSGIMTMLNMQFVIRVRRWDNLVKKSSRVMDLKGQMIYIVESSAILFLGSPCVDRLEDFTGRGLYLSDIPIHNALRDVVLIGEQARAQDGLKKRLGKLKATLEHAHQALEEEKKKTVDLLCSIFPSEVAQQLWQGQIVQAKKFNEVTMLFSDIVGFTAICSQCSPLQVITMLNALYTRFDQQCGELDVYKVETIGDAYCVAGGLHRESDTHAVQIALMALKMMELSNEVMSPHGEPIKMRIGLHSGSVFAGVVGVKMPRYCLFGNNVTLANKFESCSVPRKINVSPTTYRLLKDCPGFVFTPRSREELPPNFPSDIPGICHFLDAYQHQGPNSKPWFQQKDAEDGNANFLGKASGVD
T2 sequence (P20595 whole entry): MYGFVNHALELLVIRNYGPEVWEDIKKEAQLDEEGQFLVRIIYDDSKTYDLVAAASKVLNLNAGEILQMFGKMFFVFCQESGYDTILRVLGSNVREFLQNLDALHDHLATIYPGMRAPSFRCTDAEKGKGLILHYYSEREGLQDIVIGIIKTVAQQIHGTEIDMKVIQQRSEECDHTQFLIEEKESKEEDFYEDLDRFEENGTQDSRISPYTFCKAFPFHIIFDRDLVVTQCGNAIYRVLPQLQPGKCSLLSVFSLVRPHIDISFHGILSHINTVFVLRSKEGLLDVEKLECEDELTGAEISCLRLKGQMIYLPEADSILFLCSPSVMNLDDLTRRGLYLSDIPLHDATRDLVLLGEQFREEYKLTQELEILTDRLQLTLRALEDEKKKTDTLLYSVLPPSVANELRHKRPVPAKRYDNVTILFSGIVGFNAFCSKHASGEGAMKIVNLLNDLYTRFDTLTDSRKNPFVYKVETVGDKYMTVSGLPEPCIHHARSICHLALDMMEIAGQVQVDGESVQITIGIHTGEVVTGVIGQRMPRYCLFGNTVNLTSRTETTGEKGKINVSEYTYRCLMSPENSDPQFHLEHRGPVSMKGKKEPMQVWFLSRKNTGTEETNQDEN
Procedure: The cellular action of the compounds according to the invention is determined at a recombinant guanylate cyclase reporter cell line, as described in F. Wunder et al., Anal. Biochem. 339, 104-112 (2005).

GAL4-PPARγ = target: T3, GAL4-PPARγ (Homo sapiens, UniProt P37231); assay: Cellular PPAR transactivation assay, GAL4-PPARγ chimera in CHO-K1 cells; format: cell-based
T3 construct: PPARγ (amino acids 203-506); expressed in transfected cells
T3 sequence (P37231 203-505 limits assumed): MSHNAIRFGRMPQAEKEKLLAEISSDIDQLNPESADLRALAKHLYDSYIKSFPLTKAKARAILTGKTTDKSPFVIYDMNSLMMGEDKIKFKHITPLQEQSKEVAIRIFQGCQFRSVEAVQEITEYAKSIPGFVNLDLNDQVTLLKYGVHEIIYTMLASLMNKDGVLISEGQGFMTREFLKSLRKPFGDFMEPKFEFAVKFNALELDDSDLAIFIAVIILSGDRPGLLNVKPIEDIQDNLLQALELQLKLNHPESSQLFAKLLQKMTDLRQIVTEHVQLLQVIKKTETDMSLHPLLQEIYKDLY
Excerpt: as §1, §2, §3, §4, §5

[1] = target: T4, soluble guanylate cyclase (sGC) (Rattus norvegicus, UniProt P20595); assay: Stimulation of sGC enzyme activity (PPi detection, luciferase); format: biochemical; conditions: sGC enzyme in vitro; for EC50: read-out: EC50 (concentration at 50% of maximum efficacy), activating action at the sGC enzyme
T4 construct: made in house; host or cells: Sf9 insect cells (baculovirus)
T4 sequence (P19686 whole entry partner): as the sequence (P19686 whole entry partner) above
T4 sequence (P20595 whole entry): as the sequence (P20595 whole entry) above
Procedure: Soluble guanylate cyclase (sGC) converts on stimulation GTP into cGMP and pyrophosphate (PPi). PPi is detected with the aid of the assay described below. The signal produced in the assay increases as the reaction progresses and serves as a measure of the sGC enzyme activity under the given stimulation.
To carry out the assay, 29 μl of enzyme solution [0-10 nM soluble guanylate cyclase (prepared according to Honicka et al., J. Mol. Med. 77, 14-23 (1999)) in 50 mM TEA, 2 mM MgCl2, 0.1% BSA (fraction V), 0.005% Brij®, pH 7.5] are initially introduced into a microplate, and 1 μl of the substance to be tested (as a serially diluted solution in DMSO) is added. The mixture is incubated at room temperature for 10 min. Then 20 μl of detection mix [1.2 nM Firefly Luciferase (Photinus pyralis luciferase, Promega), 29 μM dehydroluciferin (prepared according to Bitler & McElroy, Arch. Biochem. Biophys. 72, 358 (1957)), 122 μM luciferin (Promega), 153 μM ATP (Sigma) and 0.4 mM DTT (Sigma) in 50 mM TEA, 2 mM MgCl2, 0.1% BSA (fraction V), 0.005% Brij®, pH 7.5] are added. The enzyme reaction is started by adding 20 μl of substrate solution [1.25 mM guanosine 5′-triphosphate (Sigma) in 50 mM TEA, 2 mM MgCl2, 0.1% BSA (fraction V), 0.005% Brij®, pH 7.5] and measured continuously in a luminometer. The extent of the stimulation by the substance to be tested can be determined relative to the signal of the unstimulated reaction.
The activation of haem-free guanylate cyclase is examined by addition of 25 μM of 1H-1,2,4-oxadiazolo[4,3-a]quinoxalin-1-one (ODQ) to the enzyme solution and subsequent incubation for 30 minutes and compared to the stimulation of the native enzyme.

GAL4-PPARα = target: T5, GAL4-PPARα (Homo sapiens, UniProt Q07869); assay: Cellular PPAR transactivation assay, GAL4-PPARα chimera in CHO-K1 cells; format: cell-based
T5 construct: expressed in transfected cells
T5 sequence (Q07869 167-468): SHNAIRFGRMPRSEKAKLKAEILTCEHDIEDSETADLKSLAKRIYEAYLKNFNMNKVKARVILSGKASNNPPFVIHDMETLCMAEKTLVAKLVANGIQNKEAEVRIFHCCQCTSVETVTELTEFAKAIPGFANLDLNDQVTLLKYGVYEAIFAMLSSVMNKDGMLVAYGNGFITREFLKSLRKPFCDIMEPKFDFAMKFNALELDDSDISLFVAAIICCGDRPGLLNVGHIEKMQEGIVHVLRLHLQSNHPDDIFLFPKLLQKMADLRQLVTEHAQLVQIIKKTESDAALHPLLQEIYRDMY
Excerpt: as §1, §2, §3, §4, §5

saphenous artery = assay: Vasorelaxant effect in vitro (phenylephrine-contracted saphenous artery rings); set-up: species or system Rabbits; conditions: Oryctolagus cuniculus; rabbit saphenous artery rings, phenylephrine-induced contraction
Procedure: Rabbits are anaesthetized and sacrificed by intravenous injection of thiopental sodium (about 50 mg/kg) and exsanguinated. The saphenous artery is removed and divided into rings 3 mm wide. the rings are mounted singly on in each case a pair of triangular hooks open at the end and made of 0.3 mm-thick special wire (Remanium®). Each ring is placed under an initial tension in 5 ml organ baths with Krebs-Henseleit solution which is at 37° C., is gassed with carbogen and has the following composition: NaCl 119 mM; KCl 4.8 mM; CaCl2×2 H2O 1 mM; MgSO4×7 H2O 1.4 mM; KH2PO4 1.2 mM; NaHCO3 25 mM; glucose 10 mM; bovine serum albumin 0.001%. The force of contraction is detected with Statham UC2 cells, amplified and digitized via A/D converters (DAS-1802 HC, Keithley Instruments, Munich) and recorded in parallel on chart recorders. Contractions are induced by addition of phenylephrine.
After several (generally 4) control cycles, the substance to be investigated is added in each further run in increasing dosage, and the level of the contraction achieved under the influence of the test substance is compared with the level of the contraction reached in the last preceding run. The concentration necessary to reduce the contraction reached in the preceding control by 50% is calculated from this (IC50). The standard application volume is 5 μl. The proportion of DMSO in the bath solution corresponds to 0.1%.

[2] = CHO-K1 cells, luciferase reporter, 6 h stimulation

| Emax (GAL4-PPARδ; CHO-K1, maximum effect relative to reference compound (Example 73 of EP 1 452 521-A1 = 100%), read-out: PPARδ efficacy) | EC50 (GAL4-PPARδ; [2]) | MEC (minimum effective concentration), sGC-activating activity in the CHO reporter cell (sGC) | Emax (GAL4-PPARγ; CHO-K1, maximum effect relative to reference compound (Example 73 of EP 1 452 521-A1 = 100%), read-out: PPARγ efficacy) | EC50 (GAL4-PPARγ; [2]) | MEC (minimum effective concentration), activating action at the sGC enzyme [1] | EC50 [1] | Emax (GAL4-PPARα; CHO-K1, maximum effect relative to reference compound (Example 73 of EP 1 452 521-A1 = 100%), read-out: PPARα efficacy) | EC50 (GAL4-PPARα; [2]) | IC50 (saphenous artery) | Structure (SMILES) |
| --- | --- | --- | --- | --- | --- | --- | --- | --- | --- | --- |
| 0% | > 10000 nM | 3 nM | 10% | 2000 nM | 22 nM | 330 nM | 0% | > 10000 nM | – | COC(c1ccc(Cl)c(NC(=O)[C@H](c2ccc(Cl)cc2)[C@@H](C)C(F)(F)F)c1)C1(C(=O)O)CCC1 (single isomer, unassigned) [Example 107] |
| – | – | 0.3 nM | – | – | 0.7 nM | 20 nM | – | – | 338 nM | CCOC(c1ccc(Cl)c(NC(=O)[C@H](c2ccc(Cl)cc2)[C@@H](C)C(F)(F)F)c1)C1(C(=O)O)CCC1 (single isomer, unassigned) [Example 109] |
